The text below walks through data of patent publication US11976074B1, “Crystalline salts of Linsitinib” (Sling Therapeutics, Inc., priority 2023, dated 2024).

What all share (assay type): physicochemical
A short description of data set [1]: Water activity slurries of Esylate 2 seeded with Esylate 1. As to conditions: THF/H2O, aw 0.45-0.91, RT. The text has this: Water activity slurries were set-up with Esylate 2 and seeds of Esylate 1 to explore the presence of a potential hydrate and any associated critical water activity (Table 12). Four slurries were set-up in varying ratios of THF and H2O corresponding to 0.45, 0.63, 0.78 and 0.91 aw respectively.

The nature of data set [2]: Equilibrium solubility in bio-relevant media (FaSSGF pH 1.6, FaSSIF pH 6.5). The conditions noted are these: for Solubility compared with the free base: in words. The text has this: In addition to the pH-solubility data, a comparison of the equilibrium solubility of linsitinib free base and salts in two bio-relevant media (Table 28), fasted state simulated gastric fluid (FaSSGF pH 1.6) and intestinal fluid (FaSSIF pH 6.5) was completed. […] A saturated solution of Esylate 1 was not achieved during this study and therefore the equilibrium solubility could be higher than determined. It should be noted that variability of almost a full pH unit was noted among the samples making a direct comparison more challenging.

Data set [3] is described as follows: pH-solubility of linsitinib free base and selected salts (pH 1.5 to 6.5, overnight equilibration, HPLC). As to conditions: for solubility: overnight equilibration; for Solubility compared with the free base or Phosphate 1: lower pH (<3); for Final pH: after overnight equilibration. As for the experimental part: The pH-solubility of selected salts (Phosphate 1, L-Malate 1, Esylate 1, and Esylate 2) was evaluated and compared with linsitinib free base. The solubility analysis was conducted in a manner consistent with a previous study that was performed with linsitinib free base. Aqueous solutions were prepared between pH 1.5 and pH 6.5 in 0.5 pH unit increments via titration of the solution using NaOH and HCl. For each salt or the free base, an attempt was made to reach saturation in each of the solutions by adding sufficient material to the solution such that excess solids remained. If saturation was achieved, the pH of the solution was measured and adjusted to the target pH and additional material was added if needed. The samples were then equilibrated overnight. The final pH of the solution was measured, the solids were filtered and selected samples were analyzed by PXRD. The concentration of linsitinib in the filtrate was quantitated by HPLC (diluted as needed). In some cases, significant drift (+1 pH unit or more) of the final pH from the target pH was observed after the overnight equilibration.
The pH-solubility data is shown graphically in FIG. 89. […] Indeed, it should be noted that in the majority of the low pH systems, higher initial dissolution/solubility was observed followed by precipitation of the material from solution upon longer equilibration.

A short description of data set [4]: Interconversion slurries of esylate forms. As to conditions: 4° C., RT, 60° C.; MEK and 2:1 EtOH:HEP. As for the experimental part:
To find the thermodynamically stable form of the mono-salt, interconversion slurries were set-up at three different temperatures in two different solvent systems between Esylates 1, 2, 3 and Esylate 4+Esylate 5 (Table 11). A sample of Esylate 4+Esylate 5 was included as part of the interconversion slurry in-spite of Esylate 4 being a solvate as Esylate 5 could not be isolated as a separate pure phase until the drying experiment was carried out on Esylate 4 towards the end of the study. Slurries were set-up at 4° C., RT and at 60° C. in MEK and 2:1 EtOH:HEP, resulting in a total of six experiments which were run for a total of 7 days.

A short description of data set [5]: Water activity boundary between malate forms. As to conditions: or 90% relative humidity. As for the experimental part:
Malate 2, Malate 4, and Malate 5 were all obtained from high water activity conditions and are suspected to be hydrated forms. Based on the weight loss in the TG thermograms of Malate 4 and Malate 5, they could be di-hydrates. The water activity boundary between Malate 4 and Malate 1 was determined to be approximately 0.9 water activity, or 90% relative humidity. At a water activity of 0.8, Malate 1 was obtained; however, there were additional peaks present by PXRD. […]

Data set [6] is described as follows: Polymorph screen of linsitinib malate (PXRD/XRPD result). As to conditions: solvent and conditions per sample no.; for PXRD Results: polymorph screen of linsitinib malate, slurry, cooling, precipitation or lyophilization. As for the experimental part: A Rigaku SmartLab X-Ray Diffractometer was configured in Bragg-Brentano reflection geometry equipped with a beam stop and knife edge to reduce incident beam and air scatter.
A polymorph screen of linsitinib malate was conducted. Experiments were designed to target thermodynamically stable forms and therefore utilized techniques such as long-term slurry, cooling, anti-solvent addition, and evaporation. Reaction crystallization experiments with linsitinib free base and L-malic acid were also conducted. Additionally, non-crystalline material was used as an alternative starting material as this can provide access to polymorphs that would not be accessible from crystalline starting material.

Data set [7] is described as follows: Thermogravimetric analysis (TGA). As for the experimental part:
The TG analysis was carried out using a TA Instruments […] Discovery Series instrument. The instrument balance was calibrated using class M weights and the temperature calibration was performed using alumel. The nitrogen purge was 10 mL per minute at the balance and 25 mL per minute at the furnace. The sample was placed into a pre-tared platinum pan and heated from approximately 25° C. to 300° C. at a rate of 10° C. per minute.

Where [8] appears, read: fasted state simulated gastric fluid (FaSSGF), pH 1.6, fassgf or other biorelevant, thermodynamic from solid, FaSSGF (pH 1.6), read-out: Solubility.
Setting [9] is: aqueous solution, pH 4, aqueous buffer, thermodynamic from solid, target pH 4.0, * = clear solution, not equilibrium value, read-out: Solubility.
Setting [10] is: aqueous solution, pH 4.5, aqueous buffer, thermodynamic from solid, target pH 4.5, * = clear solution, not equilibrium value, read-out: Solubility.
Where [11] appears, read: aqueous solution, pH 5, aqueous buffer, thermodynamic from solid, target pH 5.0, read-out: Solubility.
The mark [12] stands for this setting: aqueous solution, pH 5.5, aqueous buffer, thermodynamic from solid, target pH 5.5, read-out: Solubility.
Setting [13] is: aqueous solution, pH adjusted with NaOH and HCl, pH 1.5, aqueous buffer, thermodynamic from solid, target pH 1.5, * = clear solution, not equilibrium value, read-out: Solubility.
Where [14] appears, read: aqueous solution, pH adjusted with NaOH and HCl, pH 2, aqueous buffer, thermodynamic from solid, target pH 2.0, * = clear solution, not equilibrium value, read-out: Solubility.
The mark [15] stands for this setting: aqueous solution, pH adjusted with NaOH and HCl, pH 2.5, aqueous buffer, thermodynamic from solid, target pH 2.5, * = clear solution, not equilibrium value, read-out: Solubility.
The mark [16] stands for this setting: aqueous solution, pH adjusted with NaOH and HCl, pH 3, aqueous buffer, thermodynamic from solid, target pH 3.0, * = clear solution, not equilibrium value, read-out: Solubility.
Where [17] appears, read: aqueous solution, pH adjusted with NaOH and HCl, pH 3.5, aqueous buffer, thermodynamic from solid, target pH 3.5, * = clear solution, not equilibrium value, read-out: Solubility.

A word on the solubility: it is the concentration that dissolves in the medium under given conditions. As for `CCS(=O)(=O)O.C[C@]1(O)C[C@@H](c2nc(-c3ccc4ccc(-c5ccccc5)nc4c3)c3c(N)nccn32)C1` [Esylate 1], in data set [1], the “Relative stability of the form in water activity slurries” value was “metastable”. Moreover, the “Final pH” value in data set [2] (FaSSGF (pH 1.6)) worked out at 3.30; in data set [2] (FaSSIF (pH 6.5)), 6.20; in data set [3] (target pH 1.5), 1.52; in data set [3] (target pH 2.0), 1.99; in data set [3] (target pH 2.5), 2.50; in data set [3] (target pH 3.0), 3.04. Besides, the “Final pH” value in data set [3] (target pH 3.5) was 3.50; in data set [3] (target pH 4.0), 3.94; in data set [3] (target pH 4.5), 4.36; in data set [3] (target pH 5.0), 3.86; in data set [3] (target pH 5.5), 4.47; in data set [3] (target pH 6.0), 9.08. For the same compound, the “Final pH” value in data set [3] (target pH 6.5) turned out to be 4.46. Besides, the “Solubility compared with the free base” value is on record as “highest solubility by a significant margin” in data set [2] (FaSSGF (pH 1.6)) and “lower solubility” in data set [2] (FaSSIF (pH 6.5)). Further, the solubility is 0.006 mg/mL in data set [2] (FaSSIF (pH 6.5)); at least 61.6 mg/mL in data set [2] (setting [8]); 32.3 mg/mL in data set [3] (setting [9]); 36.6 mg/mL in data set [3] (setting [10]); 28.7 mg/mL in data set [3] (setting [11]); 0.0517 mg/mL in data set [3] (setting [12]). Further, the solubility came out at 64.3 mg/mL in data set [3] (setting [13]); 59.1 mg/mL in data set [3] (setting [14]); 47.3 mg/mL in data set [3] (setting [15]); 53 mg/mL in data set [3] (setting [16]); 31 mg/mL in data set [3] (setting [17]); 0.0296 mg/mL in data set [3] (target pH 6.5). For the same compound, the “Solubility compared to the free base and other salts” value in data set [3] (between pH 3 and pH 4) is reported as “highest solubility”. Also, in data set [3], the “Solubility compared with the free base or Phosphate 1” value is “significantly higher solubility”.

With `CCS(=O)(=O)O.C[C@]1(O)C[C@@H](c2nc(-c3ccc4ccc(-c5ccccc5)nc4c3)c3c(N)nccn32)C1` [Esylate 5], the “Relative stability of the form in interconversion slurries” value in data set [4] is listed as “metastable”.

For the compound `C[C@]1(O)C[C@@H](c2nc(-c3ccc4ccc(-c5ccccc5)nc4c3)c3c(N)nccn32)C1.O=C(O)C[C@H](O)C(=O)O` [L-Malate 1], the “Final pH” value in data set [2] (FaSSGF (pH 1.6)) was found to be 2.97; in data set [2] (FaSSIF (pH 6.5)), 5.46; in data set [3] (target pH 1.5), 1.45; in data set [3] (target pH 2.0), 2.02; in data set [3] (target pH 2.5), 2.37; in data set [3] (target pH 3.0), 2.80. The “Final pH” value in data set [3] (target pH 3.5) stood at 3.08; in data set [3] (target pH 4.0), 3.38; in data set [3] (target pH 4.5), 5.05; in data set [3] (target pH 5.0), 5.16; in data set [3] (target pH 5.5), 5.32; in data set [3] (target pH 6.0), 5.50. The “Final pH” value in data set [3] (target pH 6.5) is on record as 5.18. In addition, the results for the “Solubility compared with the free base” value in data set [2] (FaSSGF (pH 1.6)) and in data set [2] (FaSSIF (pH 6.5)) were “largely comparable” and “higher solubility than the free base”, respectively. For the same compound, the solubility in data set [2] (setting [8]) was 8.13 mg/mL; in data set [2] (fasted state simulated intestinal fluid (FaSSIF), pH 6.5, fassif, thermodynamic from solid, FaSSIF (pH 6.5), read-out: Solubility), 0.044 mg/mL; in data set [3] (setting [9]), 1.34 mg/mL; in data set [3] (setting [10]), 0.337 mg/mL; in data set [3] (setting [11]), 0.274 mg/mL; in data set [3] (setting [12]) it was 0.192 mg/mL. The solubility in data set [3] (aqueous solution, pH 6, aqueous buffer, thermodynamic from solid, target pH 6.0, read-out: Solubility) stood at 0.122 mg/mL; in data set [3] (aqueous solution, pH 6.5, aqueous buffer, thermodynamic from solid, target pH 6.5, read-out: Solubility) it was 0.0165 mg/mL; in data set [3] (setting [13]), 82.3 mg/mL; in data set [3] (setting [14]), 74 mg/mL; in data set [3] (setting [15]), 39 mg/mL; in data set [3] (setting [16]) it was 15.3 mg/mL. Further, the solubility in data set [3] (setting [17]) was 4.29 mg/mL. Further, in data set [3], the “Solubility compared with the free base or Phosphate 1” value is given as “significantly higher solubility”. Moreover, the “Water activity boundary between Malate 4 and Malate 1” value in data set [5] is “approximately 0.9 water activity”.

For `C[C@]1(O)C[C@@H](c2nc(-c3ccc4ccc(-c5ccccc5)nc4c3)c3c(N)nccn32)C1.O=C(O)C[C@H](O)C(=O)O` [L-Malate 2], the “PXRD Results” value in data set [6] (listed as 4-45) is recorded as “Malate 2”.

In the case of `C[C@]1(O)C[C@@H](c2nc(-c3ccc4ccc(-c5ccccc5)nc4c3)c3c(N)nccn32)C1.O=C(O)C[C@H](O)C(=O)O` [L-Malate 3], the “TGA Results (weight loss)” value in data set [7] (90° C. to 139° C.) was 0.6%, 90 °C to 139 °C; in data set [7] (start to 90° C.), 3.0%, start to 90 °C. Moreover, the “PXRD Results” value in data set [6] (listed as 4-22) is given as “Malate 3; LC”.

In the case of `C[C@]1(O)C[C@@H](c2nc(-c3ccc4ccc(-c5ccccc5)nc4c3)c3c(N)nccn32)C1.O=C(O)C[C@H](O)C(=O)O` [L-Malate 6], the “TGA Results (weight loss)” value in data set [7] (start to 61° C.) is 4.2%, start to 61 °C.

On to `C[C@]1(O)C[C@@H](c2nc(-c3ccc4ccc(-c5ccccc5)nc4c3)c3c(N)nccn32)C1.O=C(O)C[C@H](O)C(=O)O` [L-Malate 9], for which the “XRPD Results” value in data set [6] (polymorph screen starting from non-crystalline linsitinib L-malate, vapor stress, humidity stress, slurry or precipitation, listed as 4-66) is “Malate 9”.
